{"source": "patent EP4420661B1", "about": "“SMALL MOLECULES TARGETING GLYCOPROTEIN VI AS ANTIPLATELET AGENTS FOR USE IN THE PREVENTION AND/OR TREATMENT OF THROMBOSIS AND ASSOCIATED PATHOLOGIES” (Universidade de Santiago de Compostela, priority 2023, dated 2024)", "key": {"[1]": {"test_system": "human platelets", "assay": "intracellular Ca+2 mobilization assay, CRP-activated washed platelets (FLIPR Calcium 4)", "assay_type": "cell-based", "details": "Platelet, calcium mobilization in human platelets, read-out: % Inhibition of CRP effect at 1µM, Mean", "protocol": "An intracellular Ca^+2 mobilization assay was used to test the activity of the ligands in platelets. This assay measures the changes in calcium in real time by fluorophore dye Calcium 4, providing a useful way to characterize platelet activation by GPVI signaling [Barrachina et al. (2021)].\nWashed platelets (5x10E6) were incubated with FLIPR Calcium 4 reagent (Molecular Devices LLC, San Jose, CA, USA) in a 384-well transparent bottom plate (Greiner Bio-One International GmbH, Kremsmünster, Austria) and supplemented with Probenecid (Invitrogen™, Carlsbad, CA, USA) 0.07% for 1 h at 37 °C. Platelets were co-incubated for 10 min with the tested compounds and inhibitors of secondary mediators (2 U/mL apyrase and 10 microM indomethacin (Sigma-Aldrich, Saint Louis, MO, USA)) under nonaggregating conditions (9 microM eptifibatide (Cayman Chemicals, Ann Arbor, MI, USA)). Then, the GPVI-specific agonist Collagen-Related Peptide (CRP) was added to the platelet suspension at different doses. Both potential GPVI inhibitors and CRP were automatically dispensed by FDSS7000EX Functional Drug Screening System (Hamamatsu Photonics, Hamamatsu, Japan). Intracellular Ca^2+ mobilization was assessed by measuring fluorescence changes ([…] wavelengths) in real time for 15 min after the addition of the agonist. 100% was expressed as maximal Ca^2+ release in platelets treated with the agonist CRP. To determine IC50, compounds were tested at 9 different concentrations in duplicates starting from 10 uM and performing 1:3 serial dilutions. The analysis of the data was performed with GraphPad Prism® software (version 6.0e, March 2014) (GraphPad Software, San Diego, CA, USA) by carrying out a nonlinear regression fit for log(inhibitor) vs. relative CRP activity using a Hill slope of -1, and top and bottom constraints of 100 and 0, respectively."}, "[2]": {"assay": "plasmatic stability, rat plasma", "assay_type": "in vitro ADME", "details": "for Plasmatic stability: Rat plasma", "protocol": "(§1) Rat, human, mouse and dog plasma pooled from healthy donors extracted in citrate tubes was employed in the assay.\n(§2) […] Then 300µl Acetonitrile were added for precipitating plasma protein, and the plate was centrifuged at 4000 g for 60 min at 4°C.\n(§3) Supernatant was taken and analyzed by UPLC/MS/MS for sample quantification. Stationary phase: Reverse phase ACQUITY BEH C18 1.7µm 2.1x50mm (Waters) Mobile phase: 0.1% Formic acid water/0.1% formic acid in acetonitrile Gradient: Table 4: UPLC gradient / Plasmatic stability assay\n(§4) The chromatographic equipment employed was an UPLC QSM Waters Acquity. Compound concentrations were calculated from the MS peak areas."}, "[3]": {"assay": "plasmatic stability, human plasma", "assay_type": "in vitro ADME", "details": "for Plasmatic stability: Human plasma", "protocol": "as §1, §2, §3, §4"}, "[4]": {"assay": "plasmatic stability, dog plasma", "assay_type": "in vitro ADME", "protocol": "as §1, §2, §3, §4"}, "[5]": {"assay": "metabolic stability, rat microsomes", "assay_type": "in vitro ADME", "details": "Rat microsomes", "protocol": "(§5) Microsomes from Tebu-bio Xenotech were employed in the assay, having a content of 20 mg/ml of protein. The following quantities were added to each well of a 96-well microplate. Table 6: Metabolic stability assay.\n(§6) Plates were incubated at 37°C and 75 µL samples were taken at 0, 10, 20, 40 and 60 minutes.\n(§7) Samples were transferred to a microplate and 75 µl Acetonitrile + IS(Rolipram) were added for inactivating the microsomes, and 30 µl of H2O with 0.5% formic acid for improving the chromatographic conditions and kept at 4°C. When all the samples were taken the plate was centrifuged at […] for 30 min at 15°C. Stationary phase: ACQUITY BEH C18 1.7µm 2.1x50mm (Waters) Mobile phase: A: 0.1% formic; B: acetonitrile+0.1% formic acid Gradient: Table 6: UPLC gradient / Metabolic stability assay\n(§8) Metabolic stability was calculated from the logarithm of the remaining compound at each of the times evaluated."}, "[6]": {"assay": "metabolic stability, mouse microsomes", "assay_type": "in vitro ADME", "method": "Samples were transferred to a microplate and 75 µl Acetonitrile + IS(Rolipram) were added for inactivating the microsomes, and 30 µl of H2O with 0.5% formic acid for improving the chromatographic conditions and kept at 4°C. When all the samples were taken the plate was centrifuged at 46000 g for 30 min at 15°C. Stationary phase: ACQUITY BEH C18 1.7µm 2.1x50mm (Waters) Mobile phase: A: 0.1% formic; B: acetonitrile+0.1% formic acid Gradient: Table 6: UPLC gradient / Metabolic stability assay"}, "[7]": {"assay": "metabolic stability, dog microsomes", "assay_type": "in vitro ADME", "details": "Dog microsomes", "protocol": "as §5, §6, §7, §8"}, "[8]": {"assay": "metabolic stability, human microsomes", "assay_type": "in vitro ADME", "protocol": "as §5, §6, §7, §8"}, "[9]": {"assay": "plasma protein binding, Rapid Equilibrium Dialysis (RED), rat", "assay_type": "in vitro ADME", "details": "4h at 37°C", "protocol": "(§9) Plasma from Seralab was employed in the assay and was carried out by employing Rapid Equilibrium Dialysis (RED) from Thermo Scientific.\n(§10) The compounds were dissolved at 5 µM in plasma and added to the corresponding insert of the RED device. Dialysis buffer was added to the corresponding insert of the RED device. Plate was incubated for 4h at 37°C.\n(§11) After the incubation period 50 µL aliquots of each chamber were transferred to empty vials. 50 µL of dialysis buffer were added to the plasma samples and 50 µL of plasma were added to the buffer samples. 300 µL of acetonitrile were added to all the samples and centrifuged at 4000 rpm 100 µL aliquots of the supernatants were transferred to a LC analysis plate. Samples were analyzed in a UPLC/MS/MS. Stationary phase: Acquity UPLC® BEHC18 1,7 µm (2.1 mm x 50 mm) (Waters). Gradient: A (H2O + 0.1% Formic acid); B (ACN + 0.1% Formic acid); Flow: 0.6mL/min Table 8: UPLC gradient / Protein binding assay\n(§12) The chromatographic equipment employed was an ACQUITY UPLC / Xevo TQD System. Compound concentrations were calculated from the MS peak areas. Table 9: Plasma protein binding of the compounds of formula (I) in rat, mice, dogs and humans / (*) low recovery"}, "[10]": {"test_system": "Plasma protein", "assay": "plasma protein binding, Rapid Equilibrium Dialysis (RED), rat", "assay_type": "in vitro ADME", "details": "5 µM, 4h at 37°C", "protocol": "as §9, §10, §11, §12"}}, "data": [{"smiles": "O=C(Cc1ccc2c(c1)OCCO2)Nc1nc(-c2ccc3c(c2)CCC(=O)N3)cs1", "note": "[Compound (If)]", "values": [{"measurement": "inhibition at 1 µM", "setting": "[1]", "result": 31, "unit": "%"}, {"measurement": "Plasmatic stability", "setting": "[2]; 10µM, t 0 min", "result": 100.0}, {"measurement": "Plasmatic stability", "setting": "[2]; 10µM, t 60 min", "result": 105.5}, {"measurement": "Plasmatic stability", "setting": "[2]; 10µM, t 120 min", "result": 105.4}, {"measurement": "Plasmatic stability", "setting": "[2]; 10µM, t 360 min", "result": 81.6}, {"measurement": "Plasmatic stability", "setting": "[2]; 100µM, t 0 min", "result": 100.0}, {"measurement": "Plasmatic stability", "setting": "[2]; 100µM, t 60 min", "result": 88.8}, {"measurement": "Plasmatic stability", "setting": "[2]; 100µM, t 120 min", "result": 95.1}, {"measurement": "Plasmatic stability", "setting": "[2]; 100µM, t 360 min", "result": 65.7}, {"measurement": "plasmatic stability (in words)", "setting": "[2]; rats", "result": "high plasmatic stability"}, {"measurement": "Plasmatic stability", "setting": "[3]; 10µM, t 0 min", "result": 100.0}, {"measurement": "Plasmatic stability", "setting": "[3]; 10µM, t 60 min", "result": 101.0}, {"measurement": "Plasmatic stability", "setting": "[3]; 10µM, t 120 min", "result": 101.7}, {"measurement": "Plasmatic stability", "setting": "[3]; 10µM, t 360 min", "result": 101.4}, {"measurement": "Plasmatic stability", "setting": "[3]; 100µM, t 0 min", "result": 100.0}, {"measurement": "Plasmatic stability", "setting": "[3]; 100µM, t 60 min", "result": 104.3}, {"measurement": "Plasmatic stability", "setting": "[3]; 100µM, t 120 min", "result": 107.4}, {"measurement": "Plasmatic stability", "setting": "[3]; 100µM, t 360 min", "result": 106.4}, {"measurement": "plasmatic stability (in words)", "setting": "[3]; human", "result": "high plasmatic stability"}, {"measurement": "Plasmatic stability", "setting": "[4]; 10µM, t 0 min", "result": 100.0}, {"measurement": "Plasmatic stability", "setting": "[4]; 10µM, t 60 min", "result": 89.2}, {"measurement": "Plasmatic stability", "setting": "[4]; 10µM, t 120 min", "result": 85.1}, {"measurement": "Plasmatic stability", "setting": "[4]; 10µM, t 360 min", "result": 83.5}, {"measurement": "Plasmatic stability", "setting": "[4]; 100µM, t 0 min", "result": 100.0}, {"measurement": "Plasmatic stability", "setting": "[4]; 100µM, t 60 min", "result": 101.4}, {"measurement": "Plasmatic stability", "setting": "[4]; 100µM, t 120 min", "result": 106.5}, {"measurement": "Plasmatic stability", "setting": "[4]; 100µM, t 360 min", "result": 102.4}, {"measurement": "half-life", "setting": "[5]", "result": 1.03, "unit": "h"}, {"measurement": "microsomal CLint", "setting": "[5]", "result": 8.89, "unit": "µL/min/mg"}, {"measurement": "% remanent (*)", "setting": "[5]; (*) sampling time 60 min", "result": 49.9, "unit": "%"}, {"measurement": "half-life", "setting": "[6]", "result": 1.82, "unit": "h"}, {"measurement": "microsomal CLint", "setting": "[6]", "result": 7.09, "unit": "µL/min/mg"}, {"measurement": "% remanent (*)", "setting": "[6]; (*) sampling time 60 min", "result": 71.6, "unit": "%"}, {"measurement": "half-life", "setting": "[7]", "result": 5.42, "unit": "h"}, {"measurement": "microsomal CLint", "setting": "[7]", "result": 2.17, "unit": "µL/min/mg"}, {"measurement": "% remanent (*)", "setting": "[7]; (*) sampling time 60 min", "result": 89.2, "unit": "%"}, {"measurement": "half-life", "setting": "[8]", "result": 0.781, "unit": "h"}, {"measurement": "microsomal CLint", "setting": "[8]", "result": 10.1, "unit": "µL/min/mg"}, {"measurement": "% remanent (*)", "setting": "[8]; (*) sampling time 60 min", "result": 41.21, "unit": "%"}, {"measurement": "fraction unbound at 4 h, 5 µM", "setting": "[9]", "result": 0.001}, {"measurement": "Unbound fraction", "setting": "[10]", "result": 0.10, "unit": "%"}]}]}
